Test results taken from US20240115658A1, “Use of an intervertebral disc fibrosis-inducing substance in preparation of medication” (Shanghai Ninth People's Hospital, Shanghai JiaoTong …, priority 2020, published 2024).

What was measured:
[1] = tested on: TGF-β/Smad pathway in annulus fibrosus cells; test: Immunoprotein western-blotting of annulus fibrosus cells (activation of the TGF-β/Smad pathway); type: cell-based
Method: Activation of the TGF-β/Smad pathway in annulus fibrosus cells by bleomycin:
Method for immunoprotein western-blotting of annulus fibrosus cells:
Annulus fibrosus cells (provided by CAS Cell Bank) were cultured in a six-well plate to which high-sugar DMEM medium+10% fetal bovine serum was added, the plate was placed in a 5% CO2 incubator at 37° C., and 5, 10 μg/ml of bleomycin and/or the TGFβR1 inhibitor LY364947 was added when the cell confluence was 70%-80% to co-culture for 30 min or 24 h. Total cellular protein was extracted from cultured annulus fibrosus cells (Medical Center of Rush University) by using RIPA lysis buffer (Roche, Basel, Switzerland) containing phosphatase and protease inhibitors. Equal amounts (20-30 μg) of extracted proteins were obtained by using 10% or 12.5% SDSPAGE gel, and proteins were separated by electroblotting with 0.22 μm PVDF membrane (Merck Millipore). The PVDF membrane was blocked with 5% BSA-PBS for 1 h at room temperature and then incubated with primary antibody (diluted at a ratio of 1:1000 in 5% BSA-PBS) overnight (at least 16 h) at 4° C. Anti-SMAD2 antibody (Ser308, D4364; rabbit monoclonal antibody), anti-phosphorylated SMAD2 antibody (Ser465/467, 138D4; rabbit monoclonal antibody), anti-SMAD3 antibody (C67H9; rabbit monoclonal antibody), anti-phosphorylated SMAD3 antibody (Ser423/425, C25A9; rabbit monoclonal antibody), anti-SMAD2/3 antibody (D7G7; rabbit monoclonal antibody), anti-phospho SMAD2/3 antibody (Ser465/467; Ser423/425; rabbit monoclonal antibody), anti-SMAD4 antibody (D3M6U; rabbit monoclonal antibody), and […] antibody (D6A8; rabbit monoclonal antibody) were purchased from Cell Signaling Technology (Danvers, Massachusetts, USA). […] The membrane was extensively rinsed in TBST again and protein immunobands were detected by using the LI-COR Odyssey Fluorescence Imaging System (LICOR Biosciences, Lincoln, NE, USA). […]

[2] = tested on: punctured intervertebral disc (spinal degeneration); test: Digital X-ray and MRI imaging of punctured rat tail discs after disc local injection of bleomycin; type: in vivo, Sprague-Dawley rats; conditions: 5 μl of 10 and 5 μg/ml bleomycin per disc, injected two weeks after puncture, four weeks recovery
Method: Six 8-week-old male Sprague-Dawley rats (Shanghai Laboratory, Shanghai Animal Research Center, China) were raised at 26-28° C. and 50-65% humidity for 12 h day and night. […] Before surgery, the rats were anesthetized by intraperitoneal injection of sodium pentobarbital (5 mg/100 g of body weight). The tails of rats were disinfected with iodinated polyvinyl pyrrolidone, and then a longitudinal skin incision was made to the tail near the ventral part to expose 6-10 parts of the intervertebral disc of the tail bone. The Co6/7 disc was used as a sham control, and Co7/8, Co8/9, and Co9/10 were used as experimental groups. A sterile 20-gauge needle was used to perpendicularly puncture the intervertebral disc through the skin, so as to ensure the needle passed through the annulus fibrosus and stuck into the nucleus pulposus located at the center of the intervertebral disc. The incision was then sutured and the rats were allowed to recover for two weeks. The rats (n=6) were re-subjected to surgery to expose Co8/9 and Co9/10 discs, and 5 μl of 10 and 5 μg/ml bleomycin were injected into each disc. The surgical incision was then sutured and the rats were allowed to recover for four weeks. At the end of the experiment, all rats were executed, the tails were collected, the soft tissues were cleared, and the spines were fixed with 4% PFA. Co6/7 was the control group (sham group), Co7/8 was the Puncture group, and Co8/9 and Co9/10 were the puncture+bleomycin administration groups (Bleomycin group).
Digital X-ray imaging of the punctured disc samples (Puncture and Bleomycin groups) prepared in Embodiment 2 was performed in the anterior-posterior axis with a detector that provides up to 5× geometric magnification (Faxitron VersaVision; Faxitron Bioptics LLC, Tucson, AZ. USA). MRI imaging of the same punctured disc samples was performed on a Siemens MagnetomPrisma E11 (Siemens Healthineers, Erlangen, Germany) with the following parameters: TR 3000 ms, TE 80 ms, thickness 1.1 mm, interval 0.22 mm, field of view 160×65 mm, voxel size 0.25×0.1 mm.

[3] = tested on: punctured intervertebral disc (spinal degeneration); test: Safranin O-fast green staining, Sirius red staining and immunofluorescence of disc paraffin sections; type: in vivo, Sprague-Dawley rats
Method: Fixed disc tissue specimens (sham group, Puncture group, and Bleomycin group) were embedded in paraffin blocks, followed by tissue sectioning (with a thickness of 5 μm). For histological evaluation, paraffin sections were stained with saffron O-solid green and Sirius red according to standard laboratory protocols. For immunofluorescence detection, tissue sections were de-paraffined in graded xylene, rehydrated in graded alcohol solution, and then incubated in antigen retrieval buffer (Roche) at 37° C. for 30 min. After cooling to room temperature, the slides were immersed in PBS (pH 7.4) and washed 3 times for 5 min each. Autofluorescence quencher was added to the sections, and 5 min later, blocking buffer was added to block the sections for 30 min at room temperature. The sections were then incubated with primary antibodies overnight in a wet chamber at 4° C. Primary antibodies were diluted at a ratio of 1:100, and included anti-Col1a1, anti-FSP1, anti-TGFβ, and anti-TGFβR1 (all purchased from Cell Signaling Technology). The next day, sections were washed with PBS, conjugated to secondary antibody (anti-rabbit, 1:500; Cell Signaling Technology) through Alexa-fluor594, and then incubated for 50 min in the dark at room temperature. The sections were washed with PBS and then incubated with DAPI solution (Sigma Aldrich, St. Louis, MO, USA) for 10 minutes in the dark to stain the nucleus. The sections were subjected to a final PBS wash, air-dried, and then sealed with an anti-fluorescence quenching flake. Digital fluorescence images were taken by using a Leica DM4000 B epifluorescence microscope (Leica Microsystems).

[4] = tested on: punctured intervertebral disc (spinal degeneration); test: Atomic force analysis of punctured disc paraffin sections; type: in vivo, Sprague-Dawley rats; conditions: Puncture+Bleomycin; FIG. 7 and 8
Method: Atomic force analysis was performed by first extracting and dissecting the punctured vertebrae. Paraffin sections were made and then nanoindented (R<10 nm, nominal N/m, tips: Si/Tipless/Top, cantilevered Si/Al/Top; Park Systems) by using a Park NX20 (Park Systems, Korea) equipped with a microsphere colloidal tip. For undulating surfaces with large areas, a scan rate of 13 hz was used. Large scanning rates can reduce drift, but are generally only used to scan small planes. Indentation was performed by using a scanning Asyst air probe, where a z-piezo displacement rate was 10 μm/s, a maximum load was ˜120 nn, a curvature radius was 5 nm, and a force constant was 0.4 N/m.

[5] = 10 and 5 μg/ml of bleomycin, compared with the puncture group and the control group, FIG. 4
[6] = Puncture+Bleomycin vs Puncture group, FIG. 3

bleomycin
p-smad2 and p-smad3 in annulus fibrosus cells ([1]; 5, 10 μg/ml bleomycin, co-culture 30 min or 24 h, western blot, FIG. 1A and 1B): activated
expression of end-protein products Col1a1 and FSP1 ([1]; 5, 10 μg/ml bleomycin, co-culture 30 min or 24 h, western blot, FIG. 1C): increased
fibrogenic-associated proteins TGFβ, FSP1, and Col1a1 (immunoprotein western-blot) ([1]; legend of FIG. 1C): highly expressed
signal of the intervertebral disc (MRI) [2]: difficult to be preserved
stability of the disc (X-ray and MRI) [2]: not significantly affected
intervertebral space height (X-ray and MRI) ([2]; vs Puncture group): effectively maintained
staining percentage of annulus fibrous (green) [3, 5]: significantly increased
staining percentage of type I collagen (yellow) [3, 5]: significantly increased
staining percentage of type III collagen (green) [3, 5]: significantly increased
type I and type III collagens secreted (immunofluorescence) ([3]; Puncture+, Bleomycin 10 or 5, FIGS. 5 and 6): a large amount of type I and type III collagens was secreted
annulus fibrosus repair (staining) [3, 6]: completely repaired and migrated inward
intervertebral space height (Safranin O-fast green and Sirius red staining) [3, 6]: significantly higher
type I collagen secreted to fill the intervertebral space (staining) [3, 6]: large amounts of type I collagen were secreted
fibrosis (atomic force analysis) [4]: faster fibrosis
intervertebral space height (atomic force analysis) [4]: preservation of the intervertebral space height
resistance of the disc to deformation (atomic force analysis) [4]: increase in the resistance of the disc to deformation
